Like-named read-outs stand apart in the source and are kept apart here.
Experiments:
MDA-MB-435 = test system: MDA-MB-435; set-up: method as in doi:10.5352/JLS.2016.26.12.1392; details: MDA-MB-435 melanoma; cited from earlier work
[1] = Stability of QC samples in plasma; set-up: species or system rat
Method: For the analytical validation of Jaspine B in plasma samples, the standard curve range was 25–5000 ng/mL and the concentrations of quality control (QC) samples were 75, 500, and 3000 ng/mL. The recovery of these spiked QC sample were in the range of 88.2–98.1%. Intra- and inter-day precision and accuracy had coefficients of variance of less than 10%. The stability of Jaspine B QC samples after 3 freeze thaw cycles were 83.9–94.4% and the short-term stability of these samples after standing for 6 h at room temperature was 94.3–100.1%.

[2] = Pharmacokinetics after oral administration with or without taurocholate in control and bile-depleted rats; assay type: in vivo; details: male, rat, plasma, 30 mg/kg; for bioavailability: oral 30 mg/kg vs IV 10 mg/kg, read-out: BA (oral bioavailability); for AUC(0-inf) / MRT / Tmax / half-life / AUC(0-t) / Cmax: oral 30 mg/kg; for AUC(0-t): read-out: AUC12h
Method: Male SD rats (aged 8–9 weeks, weighing 250–300 g) were obtained from Samtako Bio Korea, Inc. (Osan, Korea). The rats were acclimatized for 1 week in a temperature-controlled room (23 ± 2 °C) with a 12-h illumination cycle. Food and water were given ad libitum. All animal procedures were approved by the Animal Care and Use Committee of the Kyungpook National University (No. 2015-0064). The rats were fasted for at least 12 h before the oral administration of drugs.
The femoral artery, femoral vein, and bile duct were cannulated with polyethylene tubes (PE-50 and PE-10; Jungdo, Seoul, Korea) under light anesthesia with isoflurane.
For oral dosing, Jaspine B was dissolved in a vehicle containing DMSO: PEG400: saline (2:4:4, v/v/v) and was administered by oral gavages at a single dose of 30 mg/kg of Jaspine B concomitantly with or without 60 mg/kg TC (vehicle volume, 3 mL/kg) to the control and bile-depleted rats. Bile depletion was accomplished with 4 h drainage of bile through the bile cannula, which was cannulated to the bile duct using PE-10 tubing.
Blood samples (approximately 250 μL each) were collected from the femoral artery at 0, 0.25, 0.5, 1, 1.5, 2, 4, 8, and 12 h following the oral administration of Jaspine B. After centrifugation of blood samples at 13,200 rpm for 10 min, plasma samples (50 μL) were collected and stored at −80 °C until the analysis by liquid chromatography tandem-mass spectrometry (LC-MS/MS). Aliquots (50 μL) of plasma samples were added to 250 μL of acetonitrile containing 0.5 ng/mL of berberine (an internal standard). After vortexing for 10 min and centrifugation at 13,200 rpm for 5 min, an aliquot (10 μL) of the supernatant was injected directly into the LC-MS/MS system. The standard curve range was 5–2000 ng/mL and the concentrations of quality control (QC) samples were 60, 300, and 2000 ng/mL.
Pharmacokinetic parameters were determined using a non-compartmental analysis (WinNonlin® 2.0; Pharsight, Mountain View, CA, USA). Maximum plasma concentration (Cmax) and time to reach Cmax (Tmax) values were obtained from plasma concentration-time curves. The area under the plasma concentration–time curve from zero to infinity (AUC) was calculated using the trapezoidal-extrapolation method. For extrapolation, the area from the last data point to infinity was estimated by dividing the […].
However, in the case of bile-depleted rats, AUC∞ and T1/2 were not calculated because the elimination rate constant could not be obtained.

786-O = test system: 786-O; set-up: method as in doi:10.5352/JLS.2016.26.12.1392; details: 786-O renal carcinoma; cited from earlier work
HepG2 = test system: HepG2; set-up: method as in doi:10.5352/JLS.2016.26.12.1392; details: HepG2 hepatoma; cited from earlier work
SK-OV3 = test system: SK-OV3; set-up: method as in doi:10.5352/JLS.2016.26.12.1392; details: SK-OV3 ovarian; cited from earlier work
MCF-7 = test system: MCF-7; set-up: method as in doi:10.5352/JLS.2016.26.12.1392; details: MCF-7 breast cancer cells; cited from earlier work
MDA-MB-231 = test system: MDA-MB-231; set-up: method as in doi:10.5352/JLS.2016.26.12.1392; details: MDA-MB-231 human breast adenocarcinoma; cited from earlier work
[3] = Cumulative urinary and fecal excretion in metabolic cage; assay type: in vivo; details: rat, IV 10 mg/kg, 72 h; for dose excreted: feces and urine combined, read-out: recovery of unaltered Jaspine B from combined feces and urine
Method: In the experiment using metabolic cages, feces were collected at 12, 24, 48, and 72 h following the IV administration of Jaspine B (10 mg/kg). Aliquots of 50 μL of urine and 10% feces homogenates were stored at −80 °C until the analysis.
Aliquots (50 μL) of plasma, bile, feces homogenates, and urine samples were added to 250 μL of acetonitrile containing 0.5 ng/mL of berberine (an internal standard). After vortexing for 10 min and centrifugation at 13,200 rpm for 5 min, an aliquot (2 μL) of the supernatant was injected directly into the LC-MS/MS system. For the analysis of plasma concentration, the standard curve range was 25–5000 ng/mL and the concentrations of quality control (QC) samples were 75, 500, and 3000 ng/mL, as described previously. Concentrations of Jaspine B in urine, bile, and feces homogenates were 5–300 ng/mL, 20–5000 ng/mL, and 20–5000 ng/mL, respectively. The concentrations of QC samples were 15, 100, and 300 ng/mL for urine samples and 75, 500, and 3000 ng/mL for bile and feces homogenates.

[4] = SD, bile depletion + TC 60 mg/kg

In the case of `CCCCCCCCCCCCCC[C@@H]1OC[C@H](N)[C@@H]1O` [Jaspine B], the IC50 (MDA-MB-435) is listed as 2.6 µM, the “stability after 3 freeze thaw cycles” value ([1]; plasma QC samples 75, 500, 3000 ng/mL) is listed as 83.9–94.4% and the short-term stability ([1]; plasma QC samples, 6 h at room temperature) is listed as 94.3–100.1%. It also gave a bioavailability [2, 4] of 23.5%, a bioavailability ([2]; SD, bile-depleted rats, from AUC12h) of 1.6% and a bioavailability ([2]; SD, control + TC 60 mg/kg) of 41.2%. It also gave a bioavailability ([2]; SD, control rats) of 6.2%, an AUC(0-inf) [2, 4] of 1200 ± 254 ng·h/mL and an MRT [2, 4] of 4.9 ± 0.5 h. For the same molecule, the Tmax [2, 4] was 1 ± 0.5 h, the half-life [2, 4] was 7.2 ± 1.5 h and the AUC(0-t) [2, 4] was 828 ± 180 ng·h/mL. The MRT ([2]; SD, bile-depleted rats) was 6.1 ± 0.3 h, the Tmax ([2]; SD, bile-depleted rats) was 9.3 ± 2.3 h and the AUC(0-t) ([2]; SD, bile-depleted rats) was 80.3 ± 42.7 ng·h/mL. For the same molecule, the AUC(0-inf) ([2]; SD, control + TC 60 mg/kg) was 2100 ± 419 ng·h/mL, the Cmax ([2]; SD, control + TC 60 mg/kg) was 174 ± 13 ng/mL and the MRT ([2]; SD, control + TC 60 mg/kg) was 5.5 ± 0.03 h. For the same molecule, the Tmax ([2]; SD, control + TC 60 mg/kg) was 3.3 ± 2.3 h, the half-life ([2]; SD, control + TC 60 mg/kg) was 6.4 ± 2.8 h and the AUC(0-t) ([2]; SD, control + TC 60 mg/kg) was 1406 ± 4.3 ng·h/mL. The AUC(0-inf) ([2]; SD, control rats) was 314 ± 76.1 ng·h/mL, the MRT ([2]; SD, control rats) was 4.9 ± 0.4 h and the Tmax ([2]; SD, control rats) was 2.5 ± 1.3 h. It also gave a half-life ([2]; SD, control rats) of 5.5 ± 1.1 h, an AUC(0-t) ([2]; SD, control rats) of 241 ± 57.8 ng·h/mL and a Cmax ([2]; Sprague-Dawley, bile depletion + TC 60 mg/kg) of 163 ± 28.4 ng/mL. For the same molecule, the Cmax ([2]; Sprague-Dawley, bile-depleted rats) was 8.5 ± 2.8 ng/mL, the Cmax ([2]; Sprague-Dawley, control rats) was 36.3 ± 11.3 ng/mL and the IC50 (786-O) was 29.4 µM. The IC50 (HepG2) was 5.69 µM, the IC50 (SK-OV3) was 4.78 µM and the IC50 (MCF-7) was 2.31 µM. For the same molecule, the IC50 (MDA-MB-231) was greater than 100 µM, the dose excreted ([3]; SD (Sprague-Dawley)) was 6.3% and the dose excreted ([3]; Sprague-Dawley (SD)) was roughly 6.3%. For the same molecule, the “dose recovered from feces” value ([3]; metabolic cage) was 4.7 ± 0.8% and the “dose recovered from urine” value ([3]; metabolic cage) was 1.6 ± 0.7%.
